Laboratory results taken from patent US8722849B2, “Polypeptides” (Novo Nordisk A/S, priority 2011, dated 2014).
Read-outs that look alike come from different tables or passages of the source. Values belong to the molecule of their own block, whether it stands above or below them. Starred links: 1 amine or outer side, 2 acyl side, 3 side chain; linkers in the order of their positions; H or OH if unused. Positions of bridges follow the written chain, without caps; N, C: chain ends. Residues, ends and D or L forms follow the SMILES beside them. *: point of attachment. C20 diacid = O=C(O)CCCCCCCCCCCCCCCCCCC(=O)*; γGlu = O=C(O)[C@H](CCC(=O)[*:2])N[*:1]

What was measured:
[1] = cited from earlier work
amylin receptor = target: T1, amylin receptor (Homo sapiens, UniProt P30988); details: amylin receptor vs calcitonin receptor, cited from earlier work
T1 sequence (P30988 25-474): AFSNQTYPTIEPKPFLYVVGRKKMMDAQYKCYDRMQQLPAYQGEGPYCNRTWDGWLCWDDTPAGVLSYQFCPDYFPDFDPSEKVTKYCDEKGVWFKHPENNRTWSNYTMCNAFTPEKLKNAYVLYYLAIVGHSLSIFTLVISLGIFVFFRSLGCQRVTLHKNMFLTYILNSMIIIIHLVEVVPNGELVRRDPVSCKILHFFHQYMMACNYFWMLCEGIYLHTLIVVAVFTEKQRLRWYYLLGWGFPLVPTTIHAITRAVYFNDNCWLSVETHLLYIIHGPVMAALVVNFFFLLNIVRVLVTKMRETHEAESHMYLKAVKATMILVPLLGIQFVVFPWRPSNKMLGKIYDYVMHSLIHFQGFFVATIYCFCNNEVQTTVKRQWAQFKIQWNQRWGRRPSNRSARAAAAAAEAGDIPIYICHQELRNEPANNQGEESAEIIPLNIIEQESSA

[2] = target: T2, human amylin receptor (amylin 3(a) receptor: human calcitonin receptor + RAMP-3) (Homo sapiens, UniProt O60896+P30988); assay: Assay (II)a functional CRE-luciferase assay, human amylin receptor; type: cell-based; details: Table 2; BHK amylin 3(a)-receptor/CRE-luc cells
T2 construct: expressed in transfected cells; host or cells: BHK570
T2 sequence (P30988 25-474): T1 sequence (P30988 25-474)
T2 sequence (O60896 24-148 partner): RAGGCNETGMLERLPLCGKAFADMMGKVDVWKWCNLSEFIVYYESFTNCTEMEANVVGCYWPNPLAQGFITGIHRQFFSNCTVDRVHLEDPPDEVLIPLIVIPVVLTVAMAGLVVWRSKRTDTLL

[3] = Assay (IX) pK, determination of T½ in mini-pig; type: in vivo, Göttingen mini-pigs; details: male, Göttingen, iv, 2 nmol/kg; minipig; plasma terminal half-life
[4] = target: T3, human calcitonin receptor (Homo sapiens, UniProt P30988); assay: Assay (II)a functional CRE-luciferase assay, human calcitonin receptor; type: cell-based; details: Table 7; human calcitonin (CTa) receptor
T3 construct: expressed in transfected cells; host or cells: BHK570
T3 sequence (P30988 25-474): T1 sequence (P30988 25-474)

[5] = Assay (IV) determination of solubility; type: physicochemical
Outline: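 Polypeptide in water (~500 nmol/ml stock) was mixed 1:1 with 100 mM buffers from pH 3.0 to 8.0 (glycylglycine pH 3.0–5.0; bistrispropane pH 6.0–8.0). After 18 hours at room temperature, samples were centrifuged and the polypeptide remaining in solution was quantified by HPLC.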

[6] = target: T4, rat calcitonin (a) receptor (Rattus norvegicus, UniProt P32214); assay: Assay (II)b functional cAMP FlashPlate assay, rat calcitonin receptor; type: cell-based; details: Table 11; read-out: CTa receptor rat EC50
T4 construct: expressed in transfected cells; host or cells: BHK tk'ts 13
T4 sequence (P32214 25-479 isoform P32214-2 limits assumed): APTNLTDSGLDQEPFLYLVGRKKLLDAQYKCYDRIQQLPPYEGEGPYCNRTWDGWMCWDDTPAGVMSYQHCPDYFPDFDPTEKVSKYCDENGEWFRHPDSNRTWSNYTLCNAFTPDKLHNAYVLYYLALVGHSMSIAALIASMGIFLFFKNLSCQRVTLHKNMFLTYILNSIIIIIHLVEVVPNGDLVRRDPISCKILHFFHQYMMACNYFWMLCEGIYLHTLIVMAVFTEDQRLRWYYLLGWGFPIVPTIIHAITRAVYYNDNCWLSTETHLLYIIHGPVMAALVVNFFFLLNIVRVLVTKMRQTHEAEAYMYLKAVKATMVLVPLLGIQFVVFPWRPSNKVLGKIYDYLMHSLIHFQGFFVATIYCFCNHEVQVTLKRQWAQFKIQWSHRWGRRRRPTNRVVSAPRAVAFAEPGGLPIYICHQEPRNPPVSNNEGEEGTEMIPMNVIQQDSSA
Outline: (§1)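 BHK tk'ts 13 cells transiently transfected with rat calcitonin(a) receptor, alone or with rat RAMP3 (amylin 3(a)), were stimulated 24 hours later with sample for 30 min in buffer containing IBMX. cAMP measured by competitive radioactive FlashPlate assay, scintillation read after 3 h detection incubation.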

[7] = target: T5, rat amylin 3(a) receptor (rat calcitonin(a) receptor + rat RAMP3) (Rattus norvegicus, UniProt P32214+Q9JJ73); assay: Assay (II)b functional cAMP FlashPlate assay, rat amylin receptor; type: cell-based; details: Table 11
T5 construct: expressed in transfected cells; host or cells: BHK tk'ts 13
T5 sequence (P32214 25-479 isoform P32214-2 limits assumed): T4 sequence (P32214 25-479 isoform P32214-2 limits assumed)
T5 sequence (Q9JJ73 23-147 partner): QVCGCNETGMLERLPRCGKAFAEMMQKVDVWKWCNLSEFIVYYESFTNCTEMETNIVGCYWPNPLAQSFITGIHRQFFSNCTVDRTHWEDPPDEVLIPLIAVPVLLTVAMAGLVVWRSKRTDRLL
Outline: as §1

Molecule: salmon calcitonin
- plasma half-life [1]: about 45 minutes

Molecule: pramlintide
- potency on the amylin receptor relative to the calcitonin receptor (amylin receptor): 14 times
- potency on the amylin receptor relative to the calcitonin receptor (amylin receptor; listed as Pramlintide): approximately 14 times

- EC50 [2]: 0.062 nM
- half-life [3]: 105 h
- EC50 [4]: 0.0537 nM
- solubility at 18 h ([5]; bistrispropane buffer, pH 6, pH 6.0, read-out: Solubility pH 6.0): > 200 µM
- solubility at 18 h ([5]; bistrispropane buffer, pH 6.5, pH 6.5, read-out: Solubility pH 6.5): > 200 µM
- solubility at 18 h ([5]; bistrispropane buffer, pH 7, pH 7.0, 18 hours at room temperature, Table 3, read-out: Solubility pH 7.0): > 200 µM
- solubility at 18 h ([5]; bistrispropane buffer, pH 7, pH 7.0, Table 8, read-out: Solubility pH 7.0): > 200 µM
- solubility at 18 h ([5]; bistrispropane buffer, pH 7, pH 7.0, Table 9, read-out: Solubility pH 7.0): > 200 µM
- solubility at 18 h ([5]; bistrispropane buffer, pH 7, pH 7.0, read-out: Solubility pH 7.0): > 200 µM
- solubility at 18 h ([5]; bistrispropane buffer, pH 7.5, pH 7.5, Table 9, read-out: Solubility pH 7.5): > 200 µM
- solubility at 18 h ([5]; bistrispropane buffer, pH 7.5, pH 7.5, read-out: Solubility pH 7.5): > 200 µM
- solubility at 18 h ([5]; bistrispropane buffer, pH 8, pH 8.0, read-out: Solubility pH 8.0): > 200 µM
- solubility at 18 h ([5]; glycylglycine buffer, pH 3, pH 3.0, read-out: Solubility pH 3.0): > 200 µM
- solubility at 18 h ([5]; glycylglycine buffer, pH 4, pH 4.0, 18 hours at room temperature, Table 2, read-out: Solubility pH 4.0): > 200 µM
- solubility at 18 h ([5]; glycylglycine buffer, pH 4, pH 4.0, read-out: Solubility pH 4.0): > 200 µM
- solubility at 18 h ([5]; glycylglycine buffer, pH 5, pH 5.0, read-out: Solubility pH 5.0): > 200 µM
- EC50 [6]: 0.076 nM
- EC50 [7]: 0.16 nM
Molecule: CC[C@H](C)[C@H](NC(=O)[C@@H]1CCCN1C(=O)CNC(=O)[C@H](Cc1ccccc1)NC(=O)[C@H](CC(N)=O)NC(=O)[C@H](CC(N)=O)NC(=O)[C@H](CO)NC(=O)[C@H](CO)NC(=O)[C@H](Cc1c[nH]cn1)NC(=O)[C@H](Cc1cnc[nH]1)NC(=O)[C@H](CC(C)C)NC(=O)[C@H](Cc1ccccc1)NC(=O)[C@H](CCC(=O)O)NC(=O)[C@H](C)NC(=O)[C@H](CC(C)C)NC(=O)[C@H](CCCNC(=N)N)NC(=O)[C@H](CCC(N)=O)NC(=O)[C@@H](NC(=O)[C@H](C)NC(=O)[C@@H]1CSSC[C@H](NC(=O)[C@H](CCCCN)NC(=O)CC[C@H](NC(=O)CCCCCCCCCCCCCCCCCCC(=O)O)C(=O)O)C(=O)N[C@@H](CC(N)=O)C(=O)N[C@@H]([C@@H](C)O)C(=O)N[C@@H](C)C(=O)N[C@@H]([C@@H](C)O)C(=O)N1)[C@@H](C)O)C(=O)N[C@@H](CC(C)C)C(=O)N1CCC[C@H]1C(=O)N1CCC[C@H]1C(=O)N[C@H](C(=O)N[C@@H](CC(N)=O)C(=O)N[C@H](C(=O)NCC(=O)N[C@@H](CO)C(=O)N[C@@H](CC(N)=O)C(=O)N[C@H](C(=O)N1CCC[C@H]1C(N)=O)[C@@H](C)O)C(C)C)[C@@H](C)O [Example 52, N-alpha-[(S)-4-Carboxy-4-(19-carboxynonadecanoylamino)butyryl]-[Glu14,His17,Pro37]-pramlintide] ({C20 diacid-γGlu}-KCNTATCATQRLAEFLHHSSNNFGPILPPTNVGSNTP-NH2; disulfide 2-7)
